Experimental data taken from patent publication US7429564B2, “Oral insulin therapy” (Emisphere Technologies, Inc., priority 2002, dated 2008).
Where two headings read alike, the source gives them in different places.

Legend:
[1] = Example 8: food effect on 4-CNAB pharmacokinetics, type 1 diabetes patients; assay type: in vivo, human; conditions: for AUC / Cmax / Tmax / AUC(0-inf) / half-life: human, plasma; for AUC(0-inf): read-out: Plasma 4-CNAB AUC0-inf; for half-life: read-out: Plasma 4-CNAB t1/2 (converted)
Method: A single-center, open label, randomized, single dose, 3-way cross-over study was conducted in type 1 diabetes mellitus patients to investigate the effect of food on the absorption and pharmacokinetics of insulin after a single dose of oral 4-CNAB/insulin, and to determine the effect of food on the pharmacodynamics of glucose and C-peptide after a single oral dose of 4-CNAB/insulin.
For diabetic patients, the study consisted of an eligibility screening period, three study periods and a follow-up exam at the conclusion of the last period. The three study periods included the following: administration of single doses of 4-CNAB/insulin followed by fasting (treatment A), followed by an ADA breakfast […] after dosing (treatment B), and followed by an ADA breakfast […] after dosing (treatment C). The study was conducted using an open label, randomized, crossover design with an interval of at least 7 days between treatments. The patients fasted overnight. The type 1 diabetics were randomized to treatment A or […] in periods 1 and 2. In period 3, all diabetics received treatment C. A total of eight type 1 diabetic patients were enrolled. As a control group, two healthy volunteers were enrolled.
The following treatments were administered to the type 1 diabetics according to the randomization schedule (see below) • a) 400 mg 4-CNAB/300 IU insulin followed by fasting; • b) 400 mg 4-CNAB/300 IU insulin followed by an ADA breakfast 30 minutes after dosing; • c) 400 mg 4-CNAB/300 IU insulin followed by an ADA breakfast 20 minutes after dosing.
Blood samples for pharmacokinetic analysis of 4-CNAB and insulin were drawn 30, 15 and 5 minutes prior to and at 10, 20, 30, 40, 50, 60, 75, 90, 105, 120, 150, 180, 210, and 240 minutes after 4-CNAB/insulin administration (17 samples per subject per period). Blood samples for plasma glucose were drawn 30, 15 and 5 minutes prior to and at 10, 20, 30, 40, 50, 60, 75, 90, 105, 120, 150, 180, 210, and 240 minutes after administration (17 samples per subject per period). Blood samples for C-peptide were drawn 30 and 5 minutes prior to and 30, 60, 90, 120, 180 and 240 minutes after administration (8 samples per subject per period).

[2] = Delivery agent plasma concentrations in monkeys after oral administration; assay type: in vivo
Method: Similar results were obtained when delivery agents 1-3 were administered orally to monkeys and the plasma concentrations of the delivery agents monitored over time and the AUC calculated.

[3] = oral, period 0-20 minutes post-dose, Breakfast 20 min post-dose
[4] = oral, period 0-20 minutes post-dose, Breakfast 30 min post-dose
[5] = oral, period 0-20 minutes post-dose, Fasting
[6] = oral, period 0-30 minutes post-dose, Breakfast 20 min post-dose
[7] = oral, period 0-30 minutes post-dose, Breakfast 30 min post-dose
[8] = oral, period 0-30 minutes post-dose, Fasting
[9] = oral, period 0-3 hours post-dose, Breakfast 20 min post-dose
[10] = oral, period 0-3 hours post-dose, Breakfast 30 min post-dose
[11] = oral, period 0-3 hours post-dose, Fasting
[12] = po, 400 mg, 400 mg 4-CNAB/300 IU insulin oral, Breakfast 20 min post-dose
[13] = po, 400 mg, 400 mg 4-CNAB/300 IU insulin oral, Breakfast 30 min post-dose
[14] = po, 400 mg, 400 mg 4-CNAB/300 IU insulin oral, Fasting

SMILES: O=C(O)CCCNC(=O)c1ccc(Cl)cc1O [4-CNAB, 4-[(4-chloro, 2-hydroxybenzoyl)amino]butanoic acid]
- Effect of food intake on 4-CNAB pharmacokinetics ([1]; breakfast 30 or 20 minutes after dosing): no effect on the pharmacokinetics of 4-CNAB
- AUC [1, 3]: 2.8 µg·h/mL
- Cmax [1, 3]: 20.6 µg/mL
- Tmax ([1]; oral, period 0-20 minutes post-dose, Breakfast 20 min post-dose, read-out: Plasma 4-CNAB tmax): 19.8 min
- AUC [1, 4]: 2.27 µg·h/mL
- Cmax [1, 4]: 18.8 µg/mL
- Tmax ([1]; oral, period 0-20 minutes post-dose, Breakfast 30 min post-dose, read-out: Plasma 4-CNAB tmax): 19.8 min
- AUC [1, 5]: 2.9 µg·h/mL
- Cmax [1, 5]: 20.7 µg/mL
- Tmax ([1]; oral, period 0-20 minutes post-dose, Fasting, read-out: Plasma 4-CNAB tmax): 19.8 min
- AUC [1, 6]: 6.37 µg·h/mL
- Cmax [1, 6]: 24.6 µg/mL
- Tmax ([1]; oral, period 0-30 minutes post-dose, Breakfast 20 min post-dose, read-out: Plasma 4-CNAB tmax): 25.2 min
- AUC [1, 7]: 5.96 µg·h/mL
- Cmax [1, 7]: 24 µg/mL
- Tmax ([1]; oral, period 0-30 minutes post-dose, Breakfast 30 min post-dose, read-out: Plasma 4-CNAB tmax): 28.8 min
- AUC [1, 8]: 6.29 µg·h/mL
- Cmax [1, 8]: 21.5 µg/mL
- Tmax ([1]; oral, period 0-30 minutes post-dose, Fasting, read-out: Plasma 4-CNAB tmax): 23.4 min
- AUC [1, 9]: 16.5 µg·h/mL
- Cmax [1, 9]: 25 µg/mL
- Tmax ([1]; oral, period 0-3 hours post-dose, Breakfast 20 min post-dose, read-out: Plasma 4-CNAB tmax): 27.6 min
- AUC [1, 10]: 17.1 µg·h/mL
- Cmax [1, 10]: 24 µg/mL
- Tmax ([1]; oral, period 0-3 hours post-dose, Breakfast 30 min post-dose, read-out: Plasma 4-CNAB tmax): 30 min
- AUC [1, 11]: 18.3 µg·h/mL
- Cmax [1, 11]: 21.8 µg/mL
- Tmax ([1]; oral, period 0-3 hours post-dose, Fasting, read-out: Plasma 4-CNAB tmax): 26.4 min
- Cmax [1, 12]: 25 µg/mL
- AUC(0-inf) [1, 12]: 18 µg·h/mL
- half-life [1, 12]: 39 min
- Tmax ([1]; po, 400 mg, 400 mg 4-CNAB/300 IU insulin oral, Breakfast 20 min post-dose, read-out: Plasma 4-CNAB tmax, Median (min-max)): 25.2 min
- Cmax [1, 13]: 24 µg/mL
- AUC(0-inf) [1, 13]: 18.4 µg·h/mL
- half-life [1, 13]: 42 min
- Tmax ([1]; po, 400 mg, 400 mg 4-CNAB/300 IU insulin oral, Breakfast 30 min post-dose, read-out: Plasma 4-CNAB tmax, Median (min-max)): 30 min
- Cmax [1, 14]: 21.8 µg/mL
- AUC(0-inf) [1, 14]: 20.7 µg·h/mL
- half-life [1, 14]: 51.6 min
- Tmax ([1]; po, 400 mg, 400 mg 4-CNAB/300 IU insulin oral, Fasting, read-out: Plasma 4-CNAB tmax, Median (min-max)): 25.2 min
- Fold greater penetration of the GI mucosa vs delivery agent 1 ([2]; 300 mg oral each): more than 11 fold
- Fold greater penetration of the GI mucosa vs delivery agent 2 ([2]; 300 mg oral each): more than 6 fold
- AUC ([2]; monkey, plasma, oral, 300 mg): 0.499 µg·h/mL
